{"source": "patent US7972772B2", "about": "“KIF11 and method for diagnosing non-small cell lung cancer” (Oncotherapy Science, Inc., priority 2004, dated 2011)", "key": {"GHSR1b": {"system": "GHSR1b", "test": "Ligand-receptor binding assay, COS-7 cells transfected with GHSR1b", "set-up": "species or system human", "experimental": "(§1) To identify direct binding of NMU-25 to its candidate receptors, GHSR1a, GHSR1b and NTSR1, the following experiments were performed. The entire coding region of each receptor gene was amplified by RT-PCR using primers\n(§2) The products were digested with EcoR1 and BainH1 and cloned into appropriate sites of p3XFLAG-CMV10 vector (Sigma-Aldrich Co.). COS-7 cells were transfected with GHSR1b or NTSR1 expression plasmids using FuGENE6, as described above. Transfected COS-7 cells were cultured with 0.5 μM rhodamine-labeled NMU-25 peptide (NMU-25-rhodamine: Phoenix Pharmaceuticals. Inc.) for 12 hours, washed five times in PBS(−), and fixed in 4% paraformaldehyde solution for 60 min at room temperature. Then the cells were incubated with antibodies to FLAG-tagged GHSR1a, GHSR1b, or NTSR1 proteins (Sigma-Aldrich Co.), stained with a goat anti-mouse secondary antibody conjugated to FITC (Cappel) and viewed under laser-confocal microscopy (TCS SP2 AOBS: Leica Microsystems). […]\n(§3) To confirm the binding of NMU-25 to the candidate receptors, flow-cytometric analysis was performed using the same series of COS-7 cells. […] The population of cells binding to rhodamine-labeled NMU-25 was determined by flow cytometry."}, "NTSR1": {"system": "NTSR1", "test": "Ligand-receptor binding assay, COS-7 cells transfected with NTSR1", "set-up": "species or system human", "experimental": "as §1, §2, §3"}, "GHSR1b/NTSR1": {"target": "T1, GHSR1b/NTSR1 (Homo sapiens, UniProt P30989+Q92847)", "T1 construct": "endogenous in cells; host or cells: LC319", "T1 sequence (Q92847 1-289 isoform Q92847-2)": "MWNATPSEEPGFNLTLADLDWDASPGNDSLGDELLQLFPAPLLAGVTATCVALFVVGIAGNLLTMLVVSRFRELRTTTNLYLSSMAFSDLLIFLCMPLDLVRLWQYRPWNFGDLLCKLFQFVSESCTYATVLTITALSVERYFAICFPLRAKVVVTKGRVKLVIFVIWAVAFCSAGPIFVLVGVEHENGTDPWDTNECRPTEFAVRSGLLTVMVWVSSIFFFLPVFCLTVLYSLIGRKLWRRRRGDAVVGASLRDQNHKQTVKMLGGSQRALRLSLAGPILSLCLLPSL", "T1 sequence (P30989 whole entry)": "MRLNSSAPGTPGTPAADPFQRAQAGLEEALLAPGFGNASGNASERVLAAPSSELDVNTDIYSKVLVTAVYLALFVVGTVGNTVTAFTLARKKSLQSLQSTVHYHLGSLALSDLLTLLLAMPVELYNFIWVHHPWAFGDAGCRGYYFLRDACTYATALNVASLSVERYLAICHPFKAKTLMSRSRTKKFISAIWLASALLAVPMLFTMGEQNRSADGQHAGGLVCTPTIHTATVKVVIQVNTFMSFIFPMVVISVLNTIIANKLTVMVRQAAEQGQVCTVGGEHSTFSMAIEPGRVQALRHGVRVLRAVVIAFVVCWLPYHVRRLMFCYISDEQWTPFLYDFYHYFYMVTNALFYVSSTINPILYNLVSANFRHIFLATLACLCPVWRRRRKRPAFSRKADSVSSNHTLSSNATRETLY", "test": "Intracellular Ca2+ mobilization assay in LC319 cells", "assay_type": "cell-based", "experimental": "Trypsinized LC319 cells were seeded onto poly-D-lysine coated 384-well black-wall, clear-bottom microtiter plate (1.0×10^4 cells/ml) 24 hours prior to assay. Cells were loaded for 1 hour with […] Fluo-4-AM fluorescent indicator dye in assay buffer (Hank's balanced salts solution, 20 mM HEPES, 2.5 mM probenecid), washed three times with assay buffer, and then returned to the incubator for 10 min before assay on a fluorometric imaging plate reader (FLIPR, Molecular Devices). Maximum change in fluorescence over base line was used to determine the response of the cells to the NMU-25 peptides stimulation."}, "FOXM1": {"system": "FOXM1", "test": "Induction of FOXM1 in LC319 cells, semiquantitative RT-PCR", "assay_type": "cell-based, human", "settings": "LC319, 100 μM, versus BSA control", "experimental": "Expression of the candidate genes was additionally detected by semiquantitative RT-PCR using mRNAs isolated at 72 and 96 hours from LC319 cells treated with 1 μM NMU-25 or BSA at the time point of 0 and 48 hours.\nTherefore, we chose FOXM1 for further analysis. To determine specific induction of the FOXM1 by the NMU ligand-receptor signaling, LC319 cells expressing GHSR1b and NTSR1 were cultured in the presence of NMU-25 or BSA (control) at final concentrations of 100 μM in the culture media."}, "A549 cells [1]": {"system": "A549 cells", "test": "Monastrol treatment of A549 cells, microscopy and time-lapse video-microscopy", "assay_type": "cell-based, human", "settings": "most non-mitotic cells"}, "A549 cells [2]": {"system": "A549 cells", "test": "Nocodazole treatment of A549 cells, immunocytochemistry", "assay_type": "cell-based, human", "settings": "10 μM, four hours", "excerpt": "We also investigated the endogenous location of KOC1 and KIF11 particles on the ultrafine structure of microtubules bridging individual A549 cells by an immunocytochemical study, using affinity-purified anti-KOC1- or anti-KIF11 for primary antibody and Alexa594-labeled anti-rabbit IgG for secondary antibody (Molecular Probe) and anti-alpha-tubulin-FITC monoclonal antibody. […] Moreover, no particle was found on the residual structure between the cells. […] To further clarify the detailed mechanism by which the KOC1-KIF11 complex transports mRNAs in NSCLC cells, we have searched for other component(s) that might be interacting with KIF11. Immunoprecipitation with anti-KIF11 polyclonal antibody using a lysate of LC319 cells identified a 150-kDa protein, which was later determined to be a dynactin 1 (DCTN1; p150, glued homolog, Drosophila) by MALDI-TOF mass-spectrometric analysis. DCTN1 is the largest subunit of DCTN, which binds to the cytoplasmic motor-protein dynein and activates vesicle transport along microtubules (Holzbaur, E. L. & Tokito, M. K. Genomics 31, 398-399 (1996); Tokito, M. K. et al., Mol. Biol. Cell 7, 1167-1180 (1996)), or binds to KIF11 to probably participate in centrosome separation (Blangy, A. et al., J. Biol. Chem. 272, 19418-19424 (1997)). […]"}, "[3]": {"target": "T2, endogenous GHSR1b and NTSR1 on LC319 cells (Homo sapiens, UniProt P30989+Q92847)", "T2 construct": "endogenous in cells; host or cells: LC319", "test": "Receptor-ligand binding assay on LC319 cells", "experimental": "(§4) To further confirm binding of NMU-25 to the endogenous candidate receptors on the NSCLC cells, we performed receptor-ligand binding assay using the LC319 and PC-14 cells. Briefly, these cells trypsinized were seeded onto 96-well black-wall, clear-bottom microtiter plates 24 hours prior to the assay. The medium was removed and the cells were incubated with Cy5-NMU-25 with a 10-fold excess of unlabeled competitor. The plate was incubated in the dark for 24 hours at 37° C. and was scanned on the 8200 Cellular Detection System (Applied Biosystems). 8200 Analysis Software creates a digitized gray scale image, quantitates the amount of fluorescence bound on the surface of each cell, and enumerates the fluorescent cells."}, "[4]": {"target": "T3, endogenous GHSR1b and NTSR1 on PC-14 cells (Homo sapiens, UniProt P30989+Q92847)", "T3 construct": "endogenous in cells; host or cells: PC-14", "test": "Receptor-ligand binding assay on PC-14 cells", "experimental": "as §4"}, "COS-7 cells": {"system": "COS-7 cells", "test": "Growth of COS-7 cells with NMU in the medium", "assay_type": "cell-based", "settings": "addition into the medium, dose-dependent"}, "[5]": {"settings": "COS-7, NMU-25-rhodamine 0.5 μM, 12 hours"}}, "note": "No end group written: not given here."}
{"compound": "NMU-25: NMU-25 peptide, ligand neuromedin U (FRVDEEFQSPFASQSRGYFLFRPRN)", "values": [{"measurement": "co-localization with FLAG-tagged GHSR1b (confocal microscopy)", "setting": "GHSR1b; [5]", "value": "located together on the cell membrane"}, {"measurement": "co-localization with FLAG-tagged NTSR1 (confocal microscopy)", "setting": "NTSR1; [5]", "value": "located together on the cell membrane"}, {"measurement": "intracellular Ca2+ flux / mobilization", "setting": "GHSR1b/NTSR1", "value": "but not Ca^2+ flux"}, {"measurement": "expression of FOXM1", "setting": "FOXM1", "value": "higher expression of FOXM1"}]}
{"compound": "CCOC(=O)C1=C(C)NC(=S)NC1c1cccc(O)c1", "note": "(centres unmarked) [monastrol]", "values": [{"measurement": "time to loss of protrusion and connection to adjacent cells, non-mitotic cells", "setting": "A549 cells [1]", "value": "≤ 2", "unit": "h"}]}
{"compound": "COC(=O)Nc1nc2ccc(C(=O)c3cccs3)cc2[nH]1", "note": "[nocodazole]", "values": [{"measurement": "effect on endogenous KOC1, KIF11 and microtubules", "setting": "A549 cells [2]", "value": "collapse and aggregation of endogenous KOC1 and KIF11, along with the depolymerization of microtubules in the cytoplasm"}]}
{"compound": "rhodamine-labeled NMU-25: rhodamine-labeled NMU-25 peptide (Phoenix Pharmaceuticals) (FRVDEEFQSPFASQSRGYFLFRPRN; ends and bridges not checked; also: rhodamine-labeled, site not given here)", "values": [{"measurement": "binding to surface of COS-7 cells expressing GHSR1b (flow cytometry)", "setting": "GHSR1b; dose dependent", "value": "binding"}, {"measurement": "binding to surface of COS-7 cells expressing NTSR1 (flow cytometry)", "setting": "NTSR1; dose dependent", "value": "binding"}]}
{"compound": "Cy5-labeled NMU-25: Cy5-labeled NMU-25 peptide (FRVDEEFQSPFASQSRGYFLFRPRN; ends and bridges not checked; also: Cy5-labeled, site not given here)", "values": [{"measurement": "binding to the cell surface", "setting": "[3]", "value": "detected binding"}, {"measurement": "binding to the cell surface", "setting": "[4]", "value": "detected binding"}]}
{"compound": "NMU: neuropeptide neuromedin U added into the medium (FRVDEEFQSPFASQSRGYFLFRPRN)", "values": [{"measurement": "growth of COS-7 cells", "setting": "COS-7 cells", "value": "promoted the growth"}]}
